The values that follow come from US20080269298A1, “Benzimidazol-1-YL-thiophene compounds for the treatment of cancer” (priority 2002, published 2008).

In experiment [1] the test system is Normal Human foreskin fibroblasts (HFF). Put plainly: Methylene Blue Growth Inhibition Assay, HFF. Particulars: 72 h, Cell Line HFF, 3 days, read-out: MeB IC50. Type of experiment: cell-based. The protocol: (§1) Normal Human foreskin fibroblasts (HFF) and human colon (HCT116, RKO), lung (H460), prostate (PC3), and breast tumor (MCF7) cell lines were cultured in high glucose DMEM (Life Technologies) containing 10% fetal bovine serum (FBS) at 37° C. in a humidified 10% CO2, 90% air incubator. Cells were harvested using trypsin/EDTA, counted using a haemocytometer, and plated in 100 μl of the appropriate media, at the following densities, in a 96-well tissue culture plate (Falcon 3075): HFF 5,000 cells/well, HCT116 3,000 cells/well, RKO 2,500 cells/well, H460 2,000 cells/well, PC3 8,000 cells/well, MCF7 4,000 cells/well. The next day, compounds were diluted in DMEM containing 100 μg/ml gentamicin, at twice the final required concentration, from 10 mM stock solutions in DMSO. 100μ/well of these dilutions were added to the 100 μl of media currently on the cell plates. Medium containing 0.6% DMSO was added to control wells. Compounds diluted in DMEM were added to all cell lines. The final concentration of DMSO in all wells was 0.3%. Cells were incubated at 37° C., 10% CO2 for 3 days. Medium was removed by aspiration. Cell biomass was estimated by staining cells with […] per well methylene blue (Sigma M9140, 0.5% in 50:50 ethanol:water), and incubation at room temperature for at least 30 minutes. Stain was removed, and the plates rinsed under a gentle stream of water, and air-dried. To release stain from the cells 100 μl of solubilization solution was added (1% N-lauroyl sarcosine, Sodium salt, Sigma L5125, in PBS), and plates were shaken gently for about 30 minutes. Optical density at 620 nm was measured on a microplate reader. Percent inhibition of cell growth was calculated relative to vehicle treated control wells. Concentration of compound that inhibits 50% of cell growth (IC50) was interpolated using nonlinear regression (Levenberg-Marquardt) and the equation, y=Vmax*(1-(x/(K+x)))+Y2, where “K” was equal to the IC50. In Table 1, +=10−>30 uM; ++=1−10 uM: +++=<1 uM.

The subject of experiment [2] is colon (RKO) tumor cell line. The experiment in a line: Methylene Blue Growth Inhibition Assay, RKO. The format is cell-based. Particulars: Homo sapiens, 72 h, 3 days, read-out: MeB IC50. How it is done:
as §1

The test system of experiment [3] is breast tumor (MCF7) cell line. The experiment in a line: Methylene Blue Growth Inhibition Assay, MCF7. The format is cell-based. Particulars: Homo sapiens, 72 h; Cell Line MCF7, 3 days; read-out: MeB IC50. The protocol: as §1
The test system of experiment [4] is lung (H460) tumor cell line. Put plainly: Methylene Blue Growth Inhibition Assay, H460. Type of experiment: cell-based. The conditions noted are these: Homo sapiens, NCI-H460, 72 h; Cell Line H460, 3 days; read-out: MeB IC50. The protocol:
as §1

Experiment [5] concerns colon (HCT116) tumor cell line. Put plainly: Methylene Blue Growth Inhibition Assay, HCT116. The format is cell-based. The conditions noted are these: Homo sapiens, HCT-116, 72 h; Cell Line HCT116, 3 days; read-out: MeB IC50. How it is done:
as §1

In another experiment the target is T1, PLK1 kinase domain (Homo sapiens, UniProt P53350).
T1 construct: made in house; host or cells: baculovirus-infected T. ni insect cells
T1 sequence (P53350 21-346): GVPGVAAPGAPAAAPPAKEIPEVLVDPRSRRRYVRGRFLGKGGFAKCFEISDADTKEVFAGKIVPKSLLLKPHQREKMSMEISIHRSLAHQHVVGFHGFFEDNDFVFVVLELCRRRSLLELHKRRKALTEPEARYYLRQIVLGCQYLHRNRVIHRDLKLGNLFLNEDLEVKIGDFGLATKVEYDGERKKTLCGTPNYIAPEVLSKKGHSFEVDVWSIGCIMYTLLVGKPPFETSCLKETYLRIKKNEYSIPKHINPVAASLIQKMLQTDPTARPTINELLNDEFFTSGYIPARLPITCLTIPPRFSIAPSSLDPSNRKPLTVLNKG
Put plainly: Assay for Inhibition of PLK1 (SPA enzyme activity). Type of experiment: biochemical. The conditions noted are these: 2 μM ATP, read-out: Ave pIC50 PLK Enzyme Inhibition (converted). How it is done:
All procedures were performed at 4° C. Cells were lysed in so mM HEPES, 200 mM NaCl, so mM imidazole, 5% glycerol; pH 7.5. The homogenate was centrifuged at 14K rpm in a SLA-1500 rotor for 1 hr and the supernatant filtered through a 1.2 micron filter. The supernatant was loaded onto a Nickel chelating Sepharose (Amersham Pharmacia) column and washed with lysis buffer. Protein was eluted using 20%, 30% and 100% buffer B steps where buffer B is 50 mM HEPES, 200 mM NaCl, 300 mM imidazole, 5% glycerol; pH 7.5. Fractions containing PLK were determined by SDS-PAGE. Fractions containing PLK were diluted five-fold with so mM HEPES, 1 mM DTT, 5% glycerol; pH 7.5, then loaded on an SP Sepharose (Amersham Pharmacia) column. After washing the column with so mM HEPES, 1 mM DTT, 5% glycerol; pH 7.5, PLK was step eluted with so mM HEPES, 1 mM DTT, 500 mM NaCl; 5% glycerol; pH 7.5. PLK was concentrated using a 10 kDa molecular weight cutoff membrane and then loaded onto a Superdex 200 gel filtration (Amersham Pharmacia) column equilibrated in 25 mM HEPES, 1 mM DTT, 500 mM NaCl, 5% glycerol; pH 7.5. Fractions containing PLK were determined by SDS-PAGE. PLK was pooled, aliquoted and stored at −80° C. Samples were quality controlled using mass spectrometry, N-terminal sequencing and amino acid analysis.
B. Enzyme activity+/−inhibitors was determined as follows:
Compounds were added to the plate (1 μl in […]). […] Reaction Mix B is prepared as follows at 4° C.: • Reaction Mix B (Enzyme Mix) • 25 mM HEPES, pH 7.2 • 15 mM MgCl2 • 0.15 mg/ml BSA • 2 mM DTT • 2-10 nM PLK1 kinase domain
Reaction Mix A (20 μl) is added per well. Reaction Mix B (20 μl) is added per well. Incubate 1.5 hrs. at RT. The enzymatic reaction is stopped with 175 μl of SPA/EDTA bead mix (29 mM EDTA, 2.5 mg/ml Streptavidin-coated SPA in Standard Dulbecco's PBS (without Mg^2+ and Ca^2+), 60 μM ATP). Plates are sealed spun (after a 1 hr incubation at RT) at 1,000×g for 7 min or settled overnight, then plates counted in Packard TopCount for 30 seconds/well.

The subject of experiment [6] is prostate (PC3) tumor cell line. The experiment in a line: Methylene Blue Growth Inhibition Assay, PC3. Type of experiment: cell-based. Particulars: Homo sapiens, 72 h; Cell Line PC3, 3 days; read-out: MeB IC50. How it is done:
as §1

Some results are limits rather than exact numbers.

`COc1cc2ncn(-c3cc(OCc4ccccc4C(C)=O)c(C(N)=O)s3)c2cc1OC` [Example 105, 3-[(2-Acetylbenzyl)oxy]-5-(5,6-dimethoxy-1H-benzimidazol-1-yl)thiophene-2-carboxamide]: the IC50 in experiment [1] was > 10 µM; in experiment [2], 1 to 10 µM; in experiment [3], 1 to 10 µM; in experiment [4], 1 to 10 µM; in experiment [5] it was 1 to 10 µM; at PLK1 kinase domain, < 0.1 µM. Moreover, in experiment [6], the IC50 is > 10 µM.
Consider `COc1cc2ncn(-c3cc(OCC4CCCCC4)c(C(N)=O)s3)c2cc1OC` [Example 111, 3-(Cyclohexylmethoxy)-5-(5,6-dimethoxy-1H-benzimidazol-1-yl)thiophene-2-carboxamide], for which the IC50 in experiment [1] is > 10 µM; in experiment [2] it was 1 to 10 µM; in experiment [3], 1 to 10 µM; in experiment [4] it was 1 to 10 µM; in experiment [5], 1 to 10 µM; in experiment [6] it was 1 to 10 µM.
For the compound `COc1cc2ncn(-c3cc(OCc4ccccc4C(F)(F)F)c(C(=O)O)s3)c2cc1OC` [Example 75], the IC50 in experiment [1] was > 10 µM; in experiment [2], > 10 µM; in experiment [3], > 10 µM; in experiment [4] it was > 10 µM; in experiment [5], 1 to 10 µM; in experiment [6] it was > 10 µM.
For `CC(Oc1cc(-n2cnc3cc(N)ccc32)sc1C(N)=O)c1ccccc1Cl` (centres unmarked) [Example 157, 5-(5-Amino-1H-benzimidazol-1-yl)-3-[1-(2-chlorophenyl)ethoxy]thiophene-2-carboxamide], the IC50 is > 10 µM in experiment [1]; < 1 µM in experiment [2]; < 1 µM in experiment [3]; < 1 µM in experiment [4]; < 1 µM in experiment [5]; < 0.1 µM on PLK1 kinase domain. Besides, the IC50 in experiment [6] was < 1 µM.
Turning to `Cc1ccccc1COc1cc(-n2cnc3ccc(Cl)cc32)sc1C(=O)O` [Example 35, 5-(6-Chloro-1H-benzimidazol-1-yl)-3-[(2-methylbenzyl)oxy]thiophene-2-carboxylic acid], the IC50 in experiment [1] was > 10 µM; in experiment [2], > 10 µM; in experiment [3] it was > 10 µM; in experiment [4] it was > 10 µM; in experiment [5], > 10 µM; on PLK1 kinase domain, < 0.1 µM. In experiment [6], the IC50 is > 10 µM.
In the case of `COc1cc2ncn(-c3cc(OCc4ccccc4C(F)(F)F)c(C#N)s3)c2cc1OC` [Example 146, 5-(5,6-Dimethoxy-1H-benzimidazol-1-yl)-1-{[2-(trifluoromethyl)benzyl]oxy}thiophene-2-carbonitrile], the IC50 at PLK1 kinase domain is 0.1 to 10 µM.
With `NC(=O)c1sc(-n2cnc3ccccc32)cc1OCc1cccc(Cl)c1` [Example 15, 5-(1H-Benzimidazol-1-yl)-3-[(3-chlorobenzyl)oxy]-2-thiophenecarboxamide], the IC50 on PLK1 kinase domain was < 0.1 µM.
For `COc1cc2ncn(-c3cc(OCCCc4ccccc4)c(C(N)=O)s3)c2cc1OC` [Example 115, 5-(5,6-Dimethoxy-1H-benzimidazol-1-yl)-3-(3-phenylpropoxy)thiophene-2-carboxamide], the IC50 in experiment [1] was > 10 µM; in experiment [2], 1 to 10 µM; in experiment [3] it was 1 to 10 µM; in experiment [4], 1 to 10 µM; in experiment [5], 1 to 10 µM; in experiment [6], > 10 µM.
On to `COc1cccc(COc2cc(-n3cnc4ccccc43)sc2C(N)=O)c1` [Example 14, 5-(1H-Benzimidazol-1-yl)-3-[(3-methoxybenzyl)oxy]-2-thiophenecarboxamide], for which the IC50 on PLK1 kinase domain was < 0.1 µM.
For the compound `NC(=O)c1sc(-n2cnc3ccccc32)cc1OCc1ccccc1C(F)(F)F` [Example 116, 5-(1H-Benzimidazol-1-yl)-3-{[2-(trifluoromethyl)benzyl]oxy}thiophene-2-carboxamide], the IC50 was 1 to 10 µM in experiment [1]; < 1 µM in experiment [2]; < 1 µM in experiment [3]; < 1 µM in experiment [4]; 1 to 10 µM in experiment [5]; > 10 µM in experiment [6].
Regarding `NC(=O)c1sc(-n2cnc3cc(Cl)ccc32)cc1OCc1ccccc1` [Example 84, 3-(Benzyloxy)-5-(5-chloro-1H-benzimidazol-1-yl)thiophene-2-carboxamide], on PLK1 kinase domain, the IC50 was < 0.1 µM.
As to `O=C(NO)c1sc(-n2cnc3ccccc32)cc1OCc1ccccc1` [Example 144, 5-(1H-Benzimidazol-1-yl)-3-(benzyloxy)-N-hydroxythiophene-2-carboxamide], at PLK1 kinase domain, the IC50 was 0.1 to 10 µM.
In the case of `Cc1ccccc1COc1cc(-n2cnc3ccccc32)sc1C(N)=O` [Example 4, 5-(1H-Benzimidazol-1-yl)-3-[(2-methylbenzyl)oxy]-2-thiophenecarboxamide], on PLK1 kinase domain, the IC50 was < 0.1 µM.
As for `COc1cc2ncn(-c3cc(OCc4ccccc4C(F)(F)F)c(-c4nnn[nH]4)s3)c2cc1OC` [Example 147, 5,6-Dimethoxy-1-(5-(1H-tetraazol-5-yl)-4-{[2-(trifluoromethyl)-benzyl]oxy}thien-2-yl)-1H-benzimidazole], the IC50 in experiment [1], in experiment [2], in experiment [3], in experiment [4], in experiment [5] and in experiment [6] was > 10 µM throughout.
With `Cc1ccccc1COc1cc(-n2cnc3cc(O)ccc32)sc1C(=O)O` [Example 141, 5-(5-Hydroxy-1H-benzimidazol-1-yl)-3-[(2-methylbenzyl)oxy]-thiophene-2-carboxylic acid], the IC50 on PLK1 kinase domain was < 0.1 µM.
For the compound `Cc1cccc(COc2cc(-n3cnc4ccccc43)sc2C(N)=O)c1` [Example 13, 5-(1H-Benzimidazol-1-yl)-3-[(3-methylbenzyl)oxy]-2-thiophenecarboxamide], the IC50 at PLK1 kinase domain is < 0.1 µM.
Take `COc1cc2ncn(-c3cc(OCCc4ccccc4)c(C(N)=O)s3)c2cc1OC` [Example 114, 5-(5,6-Dimethoxy-1H-benzimidazol-1-yl)-3-(2-phenylethoxy)-thiophene-2-carboxamide]: the IC50 in experiment [1], in experiment [2], in experiment [3], in experiment [4], in experiment [5] and in experiment [6] was > 10 µM each time.
